Assay results as given in patent publication US10774064B2 (Cadent Therapeutics, Inc., priority 2016, dated 2020).

Target: T1, small-conductance Ca2+-activated K+ channels (SK channels, subtype 2) (Homo sapiens, UniProt Q9H2S1)
T1 construct: expressed in transfected cells; host or cells: HEK293
Assay: whole-cell patch-clamp of ionic current through SK2 channels in HEK293 cells (SC100)
Type: cell-based
Settings: whole-cell patch-clamp, HEK293 cells expressing SK2 channels; concentration that increases the basal current by 100%
Procedure, shortened: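 SC100, the concentration doubling basal current (a 100% increase), was taken from SK2 currents recorded by whole-cell patch-clamp in SK2-expressing HEK293 cells.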

Structure (SMILES)	SC100 (μM)
Cc1csc(-c2nc(NC3CCC(F)CC3)cc(N3CCOCC3)n2)n1 (stereo not shown) [NSSy5699, N-(4-fluorocyclohexyl)-2-(4-methylthiazol-2-yl)-6-morpholinopyrimidin-4-amine]	+ (+ means >1 uM)
Cc1csc(-c2nc(NC3CC=CCC3)cc(N3CCOCC3)n2)n1 (stereo not shown) [NSSy5703, N-(cyclohex-3-en-1-yl)-2-(4-methylthiazol-2-yl)-6-morpholinopyrimidin-4-amine]	+ (+ means >1 uM)
Cc1csc(-c2nc(NC3CCC(F)CC3)cc(OC3CN(C(=O)C(C)C)C3)n2)n1 (stereo not shown) [NSSy5709]	++ (++ means 200 nM-1000 nM)
COC(=O)N1CC(Oc2cc(NC3CCC(F)CC3)nc(-c3nc(C)cs3)n2)C1 (stereo not shown) [NSSy5710]	++ (++ means 200 nM-1000 nM)
CN(C)C1CN(c2cc(Nc3ccc(F)cc3)nc(-n3ccc(CF)n3)c2)C1 [NSSy5713]	+ (+ means >1 uM)
FCc1csc(-c2nc(NC3CCC(F)(F)CC3)cc(N3CC4(COC4)C3)n2)n1 [NSSy5715, N-(4,4-difluorocyclohexyl)-2-(4-(fluoromethyl)thiazol-2-yl)-6-(2-oxa-6-azaspiro[3.3]heptan-6-yl)pyrimidin-4-amine]	++ (++ means 200 nM-1000 nM)
Cc1csc(-c2cc(OCc3cnnn3C)cc(NC3CCC(F)(F)CC3)n2)n1 [NSSy5717]	+++ (+++ means <200 nM)
Cc1ccn(-c2cc(N3CC(C)(O)C3)cc(NC3CCC(F)(F)CC3)n2)n1 [NSSy5721]	++ (++ means 200 nM-1000 nM)
CCC(=O)N1CC(Oc2cc(NC3CCC(F)(F)CC3)nc(-c3nc(C)cs3)n2)C1 [NSSy5726]	++ (++ means 200 nM-1000 nM)
COC(=O)N(C)C1CC(Oc2cc(NC3CCC(F)(F)CC3)nc(-c3nc(C)cs3)n2)C1 (stereo not shown) [NSSy5730]	++ (++ means 200 nM-1000 nM)
Cc1ccn(-c2cc(OCc3ncnn3C)cc(NC3CCC(F)(F)CC3)n2)n1 [NSSy5737]	++ (++ means 200 nM-1000 nM)
Cc1csc(-c2nc(NC3CCC(F)(F)CC3)cc(OC3CC(C)(O)C3)n2)n1 (stereo not shown) [NSSy5740]	++ (++ means 200 nM-1000 nM)
COC(=O)N1CC(Oc2cc(NC3CCC(F)CC3)nc(-n3ccc(C)n3)n2)C1 (stereo not shown) [NSSy5741]	+ (+ means >1 uM)
Cc1ccn(-c2cc(N3CCOCC3)cc(NC3CC=CCC3)n2)n1 (stereo not shown) [NSSy5759, N-(cyclohex-3-en-1-yl)-6-(3-methyl-1H-pyrazol-1-yl)-4-morpholino pyridin-2-amine]	++ (++ means 200 nM-1000 nM)
Cc1ccn(-c2nc(NC3CC=CCC3)cc(OC3CN(C(=O)C(C)C)C3)n2)n1 (stereo not shown) [NSSy5762]	++ (++ means 200 nM-1000 nM)
Cc1ccn(-c2cc(N3CC(N(C)C)C3)cc(NC3CCC(F)(F)CC3)n2)n1 [NSSy5763]	++ (++ means 200 nM-1000 nM)
Cc1ccn(-c2nc(NC3CCC(F)CC3)cc(OC3CN(C(=O)C(C)C)C3)n2)n1 (stereo not shown) [NSSy5765]	++ (++ means 200 nM-1000 nM)
Cc1csc(-c2nc(NC3CCC(F)(F)CC3)cc(N3CCN4C(=O)OCC4C3)n2)n1 (stereo not shown) [NSSy5774]	++ (++ means 200 nM-1000 nM)
COCc1cc(NC2CCC(F)(F)CC2)nc(-c2nc(C)cs2)n1 [NSSy5779, N-(4,4-difluorocyclohexyl)-6-(methoxymethyl)-2-(4-methylthiazol-2-yl)pyrimidin-4-amine]	++ (++ means 200 nM-1000 nM)
COC(=O)N1CC(Oc2cc(NC3CC=CCC3)nc(-n3ccc(C)n3)n2)C1 (stereo not shown) [NSSy5786]	++ (++ means 200 nM-1000 nM)
Cc1csc(-c2nc(NC3CCC(F)(F)CC3)cc(N3CCC(C4COC4)CC3)n2)n1 [NSSy5787]	++ (++ means 200 nM-1000 nM)
COCC1CN(c2cc(NC3CCC(F)(F)CC3)nc(-c3nc(C)cs3)n2)CCO1 (stereo not shown) [NSSy5789]	+++ (+++ means <200 nM)
Cc1csc(-c2nc(NC3CCC(F)(F)CC3)cc(N3CCN(C4COC4)CC3)n2)n1 [NSSy5792]	++ (++ means 200 nM-1000 nM)
COC[C@@H]1CN(c2cc(NC3CCC(F)(F)CC3)nc(-c3nc(C)cs3)n2)CCO1 [NSSy5795]	++ (++ means 200 nM-1000 nM)
COC[C@H]1CN(c2cc(NC3CCC(F)(F)CC3)nc(-c3nc(C)cs3)n2)CCO1 [NSSy5796]	+++ (+++ means <200 nM)
COCC1CN(c2cc(NC3CCC(F)(F)CC3)nc(-c3nc(C)cs3)c2)CCO1 (stereo not shown) [NSSy5807]	+++ (+++ means <200 nM)

Structure (SMILES)	SC100 (μM)
Cc1cc(C)n(-c2cc3c(ncn3C3COC3)c(NC3CCC(F)(F)CC3)n2)n1 [NSSy5808, N-(4,4-difluorocyclohexyl)-6-(3,5-dimethyl-1H-pyrazol-1-yl)-1-(oxetan-3-yl)-1H-imidazo[4,5-c]pyridin-4-amine]	++ (++ means 200 nM-1000 nM)
Cc1csc(-c2cc(N3CCC(C4COC4)CC3)cc(NC3CCC(F)(F)CC3)n2)n1 [NSSy5815]	++ (++ means 200 nM-1000 nM)
COCc1cc(NC2CCC(F)(F)CC2)nc(-c2nc(C)co2)n1 [NSSy5818, N-(4,4-difluorocyclohexyl)-6-(methoxymethyl)-2-(4-methyloxazol-2-yl)pyrimidin-4-amine]	+ (+ means >1 uM)
Cc1csc(-c2cc(N3CCN(C4COC4)CC3)cc(NC3CCC(F)(F)CC3)n2)n1 [NSSy5819]	++ (++ means 200 nM-1000 nM)
Cc1csc(-c2cc(N3CCN4C(=O)OCC4C3)cc(NC3CCC(F)(F)CC3)n2)n1 (stereo not shown) [NSSy5824]	+++ (+++ means <200 nM)
Cc1ccn(-c2cc(C#N)cc(NC3CCC(F)(F)CC3)n2)n1 [NSSy5826]	++ (++ means 200 nM-1000 nM)
Cc1ccn(-c2cc(CO)cc(NC3CCC(F)(F)CC3)n2)n1 [NSSy5827]	++ (++ means 200 nM-1000 nM)
Cc1ccc(OCc2cc(NC3CCC(F)(F)CC3)nc(-n3ccc(C)n3)c2)nn1 [NSSy5828, N-(4,4-difluorocyclohexyl)-6-(3-methyl-1H-pyrazol-1-yl)-4-(((6-methylpyridazin-3-yl)oxy)methyl)pyridin-2-amine]	+++ (+++ means <200 nM)
Cc1ccn(-c2cc(CF)cc(NC3CCC(F)(F)CC3)n2)n1 [NSSy5829, N-(4,4-difluorocyclohexyl)-4-(fluoromethyl)-6-(3-methyl-1H-pyrazol-1-yl)pyridin-2-amine]	++ (++ means 200 nM-1000 nM)
C/C(=N\O)Nc1cc(NC2CCC(F)(F)CC2)nc(-c2nc(C)no2)n1 [NSSy5830, (E)-N-(6-((4,4-difluorocyclohexyl)amino)-2-(3-methyl-1,2,4-oxadiazol-5-yl)pyrimidin-4-yl)-N′-hydroxyacetimidamide]	+ (+ means >1 uM)
Cc1nsc(-c2nc(NC3CCC(F)(F)CC3)cc(N3CCOCC3)n2)n1 [NSSy5832]	+ (+ means >1 uM)
Cc1noc(-c2nc(NC3CCC(F)(F)CC3)cc(N3CCOCC3)n2)n1 [NSSy5835, N-(4,4-difluorocyclohexyl)-2-(3-methyl-1,2,4-oxadiazol-5-yl)-6-morpholinopyrimidin-4-amine]	+ (+ means >1 uM)
Cc1csc(-c2cc(N3CCN4C(=O)OC[C@@H]4C3)cc(NC3CCC(F)(F)CC3)n2)n1 [NSSy5837]	+++ (+++ means <200 nM)
Cc1csc(-c2cc(N3CCN4C(=O)OC[C@H]4C3)cc(NC3CCC(F)(F)CC3)n2)n1 [NSSy5838]	+++ (+++ means <200 nM)
Cc1ccn(-c2cc(C(F)F)cc(NC3CCC(F)(F)CC3)n2)n1 [NSSy5839, N-(4,4-difluorocyclohexyl)-4-(difluoromethyl)-6-(3-methyl-1H-pyrazol-1-yl)pyridin-2-amine]	++ (++ means 200 nM-1000 nM)
Cc1ccn(-c2cc(C(C)(C)O)cc(NC3CCC(F)(F)CC3)n2)n1 [NSSy5846]	++ (++ means 200 nM-1000 nM)
N#Cc1ccn(-c2nc(NC3CCC(F)(F)CC3)cc(N3CC4(COC4)C3)n2)n1 [NSSy5847]	+ (+ means >1 uM)
N#CCc1ccn(-c2nc(NC3CCC(F)(F)CC3)cc(N3CC4(COC4)C3)n2)n1 [NSSy5848]	+ (+ means >1 uM)
COC(=O)N1CC(Oc2cc(NC3CC=C(C)CC3)nc(-c3nc(C)cs3)n2)C1 (stereo not shown) [NSSy5854, methyl 3-((6-((4-methylcyclohex-3-en-1-yl)amino)-2-(4-methylthiazol-2-yl)pyrimidin-4-yl)oxy)azetidine-1-carboxylate]	++ (++ means 200 nM-1000 nM)
COC(=O)N1CC(Oc2cc(NC3CCC(F)(F)CC3)nc(-c3nc(C)ns3)n2)C1 [NSSy5857]	++ (++ means 200 nM-1000 nM)
COCc1cc(NC2CCC(F)(F)CC2)nc(-n2ccc(C)n2)c1 [NSSy5860]	++ (++ means 200 nM-1000 nM)
Cc1ccn(-c2cc(COc3ncc(F)cn3)cc(NC3CCC(F)(F)CC3)n2)n1 [NSSy5861]	++ (++ means 200 nM-1000 nM)
COC(=O)N1CC(Oc2nc(-c3nc(C)cs3)nc(NC3CCC(F)(F)CC3)c2Br)C1 [NSSy5868, methyl 3-((5-bromo-6-((4,4-difluorocyclohexyl)amino)-2-(4-methylthiazol-2-yl)pyrimidin-4-yl)oxy)azetidine-1-carboxylate]	+++ (+++ means <200 nM)
Cc1ccn(-c2nc(NC3CCC(F)(F)CC3)cc(OC3CC(O)C3)n2)n1 (stereo not shown) [NSSy5879, 3-((6-((4,4-difluorocyclohexyl)amino)-2-(3-methyl-1H-pyrazol-1-yl)pyrimidin-4-yl)oxy)cyclobutan-1-ol]	++ (++ means 200 nM-1000 nM)
COC(=O)N1CC(Oc2cc(NC3CCC(F)(F)CC3)nc(-c3nc(C)no3)n2)C1 [NSSy5887, methyl 3-((6-((4,4-difluorocyclohexyl)amino)-2-(3-methyl-1,2,4-oxadiazol-5-yl)pyrimidin-4-yl)oxy)azetidine-1-carboxylate]	+ (+ means >1 uM)
Cc1ccn(-c2nc(NC3CCC(F)(F)CC3)cc(OC3CC(F)(F)C3)n2)n1 [NSSy5893, 6-(3,3-difluorocyclobutoxy)-N-(4,4-difluorocyclohexyl)-2-(3-methyl-1H-pyrazol-1-yl)pyrimidin-4-amine]	++ (++ means 200 nM-1000 nM)
